Source: ChEMBL document CHEMBL1122706, “2,5-Anhydro-1-deoxy-1-phosphono-D-altritol, an isosteric analogue of alpha-D-ribofuranose 1-phosphate” (J Med Chem, 1984)
Calls of active or inactive are those of the source. No cut-off for these calls is given here.

Tests used:
[1] = Inhibitory activity against uridine phosphorylase at a concentration of 4 mM by using 5-fluorouracil and ribose 1-phosphate as substrates; NI = No inhibition
[2] = biological target: T1, Purine nucleoside phosphorylase (Homo sapiens) (UniProt P00491); test: Inhibitory activity against purine nucleoside phosphorylase at a concentration of 6 mM; NA = No activity
T1 sequence (whole entry): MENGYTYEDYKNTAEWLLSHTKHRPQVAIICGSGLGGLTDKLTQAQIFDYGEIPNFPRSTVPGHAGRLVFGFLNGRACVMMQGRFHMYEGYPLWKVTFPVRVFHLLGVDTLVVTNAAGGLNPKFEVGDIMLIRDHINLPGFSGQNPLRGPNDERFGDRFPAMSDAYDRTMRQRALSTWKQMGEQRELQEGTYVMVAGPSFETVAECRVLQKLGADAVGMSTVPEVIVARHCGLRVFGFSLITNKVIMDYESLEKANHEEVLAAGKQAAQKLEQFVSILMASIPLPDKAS

O=P(O)(O)C[C@H]1O[C@H](CO)[C@@H](O)[C@H]1O
inhibition [1]: inactive
inhibition [2]: inactive

O=P(O)(O)C[C@@H]1O[C@H](CO)[C@@H](O)[C@H]1O
inhibition [2]: inactive
